Tests used:
Assay type in all cases: in vivo
[1] = system: large crabgrass (Digitaria sanguinalis); experiment: Test B pre-/postemergence plant response; conditions: for Crabgrass, Large plant response rating: 8 g ai/ha
In short: (§1)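 Visual scoring from 0 (no effect) to 100 (complete control) against untreated controls was done 13 to 15 days after greenhouse treatment. Chemicals were formulated in a surfactant-containing non-phytotoxic solvent and applied to soil preemergence or to 1- to 4-leaf (2-18 cm) plants postemergence.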

[2] = system: surinam grass (Brachiaria decumbens); experiment: Test B pre-/postemergence plant response; conditions: for Surinam Grass plant response rating: 8 g ai/ha
In short: as §1

corn (Zea mays) = experiment: Test B pre-/postemergence plant response; conditions: for Corn plant response rating: 8 g ai/ha
In short: as §1

[3] = system: cocklebur (Xanthium strumarium); experiment: Test B pre-/postemergence plant response; conditions: for Cocklebur plant response rating: 8 g ai/ha
In short: as §1

[4] = system: common (oilseed) sunflower (Helianthus annuus); experiment: Test B pre-/postemergence plant response; conditions: Preemergence
In short: as §1

[5] = system: lambsquarters (Chenopodium album); experiment: Test B pre-/postemergence plant response; conditions: for Lambsquarters plant response rating: 8 g ai/ha
In short: as §1

[6] = system: Russian thistle (Salsola iberica); experiment: Test B pre-/postemergence plant response; conditions: Preemergence
In short: as §1

soybean (Glycine max) = experiment: Test B pre-/postemergence plant response
In short: as §1

kochia (Kochia scoparia) = experiment: Test B pre-/postemergence plant response; conditions: for Kochia plant response rating: 8 g ai/ha
In short: as §1

[7] = system: goosegrass (Eleusine indica); experiment: Test B pre-/postemergence plant response; conditions: for Goosegrass plant response rating: 8 g ai/ha
In short: as §1

[8] = system: bermudagrass (Cynodon dactylon); experiment: Test B pre-/postemergence plant response; conditions: for Bermudagrass plant response rating: 8 g ai/ha
In short: as §1

[9] = system: common ragweed (Ambrosia elation); experiment: Test B pre-/postemergence plant response; conditions: for Ragweed plant response rating: 8 g ai/ha
In short: as §1

[10] = system: wheat (Triticum aestivum); experiment: Test B pre-/postemergence plant response; conditions: for Wheat plant response rating: 8 g ai/ha
In short: as §1

[11] = system: ducksalad (Heteranthera limosa); experiment: Test B flooded paddy test plant response
In short: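 2-leaf plants; pots flooded 3 cm above soil; compound added to paddy water; depth maintained. Greenhouse 13–15 d. Visual rating vs controls, 0 (no effect) to 100 (complete control); dash = no result.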

[12] = Postemergence, 16 g ai/ha, scale 0 to 100
[13] = Postemergence, 31 g ai/ha, scale 0 to 100, 0 no effect, 100 complete control
[14] = Postemergence, 62 g ai/ha, scale 0 to 100
[15] = Preemergence, 16 g ai/ha, scale 0 to 100 (0 no effect, 100 complete control)
[16] = Preemergence, 31 g ai/ha, 0 to 100 scale, 0 no effect, 100 complete control
[17] = Preemergence, 62 g ai/ha, scale 0 to 100
[18] = 16 g ai/ha, scale 0 to 100 (0 no effect, 100 complete control)
[19] = 31 g ai/ha, 0 to 100 scale, 0 no effect, 100 complete control

## CCc1cc(-c2ccc(Cl)cc2)nn1-c1c(O)cnn(C)c1=O [Compound 21]
[1]; postemergence, 0-100 scale
  Crabgrass, Large plant response rating: 95
[1]; [12]
  Plant response rating, Crabgrass, Large: 100
[1]; [13]
  Plant response rating, Crabgrass, Large: 100
[1]; [14]
  Plant response rating, Crabgrass, Large: 100
[1]; [15]
  Plant response rating, Crabgrass, Large: 80
[1]; [16]
  Plant response rating, Crabgrass, Large: 80
[1]; [17]
  Plant response rating, Crabgrass, Large: 100
[1]; Preemergence, scale 0 to 100
  Crabgrass, Large plant response rating: 0
[2]; postemergence, 0-100 scale
  Surinam Grass plant response rating: 100
[2]; [12]
  Plant response rating, Surinam Grass: 100
[2]; [13]
  Plant response rating, Surinam Grass: 100
[2]; [14]
  Plant response rating, Surinam Grass: 100
[2]; [15]
  Plant response rating, Surinam Grass: 100
[2]; [17]
  Plant response rating, Surinam Grass: 100
[2]; Preemergence, scale 0 to 100
  Surinam Grass plant response rating: 98
Corn (Zea mays); postemergence, 0-100 scale
  Corn plant response rating: 50
Corn (Zea mays); [12]
  Plant response rating, Corn: 100
Corn (Zea mays); [13]
  Plant response rating, Corn: 100
Corn (Zea mays); [14]
  Plant response rating, Corn: 100
Corn (Zea mays); [15]
  Plant response rating, Corn: 80
Corn (Zea mays); [16]
  Plant response rating, Corn: 95
Corn (Zea mays); [17]
  Plant response rating, Corn: 98
Corn (Zea mays); Preemergence, scale 0 to 100
  Corn plant response rating: 70
[3]; postemergence, 0-100 scale
  Cocklebur plant response rating: 0
[3]; [12]
  Plant response rating, Cocklebur: 0
[3]; [13]
  Plant response rating, Cocklebur: 0
[3]; [14]
  Plant response rating, Cocklebur: 0
[3]; [15]
  Plant response rating, Cocklebur: 0
[3]; [16]
  Plant response rating, Cocklebur: 0
[3]; [17]
  Plant response rating, Cocklebur: 0
[3]; Preemergence, scale 0 to 100
  Cocklebur plant response rating: 0
[4]; [18]
  Plant response rating, Sunflower: 0
[4]; [19]
  Plant response rating, Sunflower: 0
[4]; 62 g ai/ha, scale 0 to 100
  Plant response rating, Sunflower: 0
[5]; postemergence, 0-100 scale
  Lambsquarters plant response rating: 0
[5]; [12]
  Plant response rating, Lambsquarters: 0
[5]; [13]
  Plant response rating, Lambsquarters: 0
[5]; [14]
  Plant response rating, Lambsquarters: 0
[5]; [15]
  Plant response rating, Lambsquarters: 0
[5]; [16]
  Plant response rating, Lambsquarters: 100
[5]; [17]
  Plant response rating, Lambsquarters: 100
[5]; Preemergence, scale 0 to 100
  Lambsquarters plant response rating: 0
[6]; [18]
  Plant response rating, Russian Thistle: 0
[6]; [19]
  Plant response rating, Russian Thistle: 0
[6]; 62 g ai/ha, scale 0 to 100
  Plant response rating, Russian Thistle: 0
[6]; 8 g ai/ha, scale 0 to 100
  Russian Thistle plant response rating: 0
Soybean (Glycine max); 8 g ai/ha, postemergence, 0-100 scale
  Soybean plant response rating: 0
Soybean (Glycine max); [12]
  Plant response rating, Soybean: 0
Soybean (Glycine max); [13]
  Plant response rating, Soybean: 0
Soybean (Glycine max); [14]
  Plant response rating, Soybean: 10
Soybean (Glycine max); [16]
  Plant response rating, Soybean: 0
Kochia (Kochia scoparia); postemergence, 0-100 scale
  Kochia plant response rating: 0
Kochia (Kochia scoparia); [12]
  Plant response rating, Kochia: 0
Kochia (Kochia scoparia); [13]
  Plant response rating, Kochia: 0
Kochia (Kochia scoparia); [14]
  Plant response rating, Kochia: 0
Kochia (Kochia scoparia); [15]
  Plant response rating, Kochia: 0
Kochia (Kochia scoparia); [16]
  Plant response rating, Kochia: 0
Kochia (Kochia scoparia); [17]
  Plant response rating, Kochia: 0
Kochia (Kochia scoparia); Preemergence, scale 0 to 100
  Kochia plant response rating: 0
[7]; postemergence, 0-100 scale
  Goosegrass plant response rating: 65
[7]; [12]
  Plant response rating, Goosegrass: 80
[7]; [13]
  Plant response rating, Goosegrass: 95
[7]; [14]
  Plant response rating, Goosegrass: 100
[7]; [15]
  Plant response rating, Goosegrass: 80
[7]; [16]
  Plant response rating, Goosegrass: 95
[7]; [17]
  Plant response rating, Goosegrass: 100
[7]; Preemergence, scale 0 to 100
  Goosegrass plant response rating: 10
[8]; postemergence, 0-100 scale
  Bermudagrass plant response rating: 40
[8]; [12]
  Plant response rating, Bermudagrass: 60
[8]; [13]
  Plant response rating, Bermudagrass: 80
[8]; [14]
  Plant response rating, Bermudagrass: 100
[8]; Preemergence, scale 0 to 100 (0 no effect, 100 complete control)
  Bermudagrass plant response rating: 60
[8]; [15]
  Plant response rating, Bermudagrass: 80
[8]; [16]
  Plant response rating, Bermudagrass: 85
[8]; [17]
  Plant response rating, Bermudagrass: 100
[9]; postemergence, 0-100 scale
  Ragweed plant response rating: 0
[9]; [12]
  Plant response rating, Ragweed: 0
[9]; [13]
  Plant response rating, Ragweed: 0
[9]; [14]
  Plant response rating, Ragweed: 0
[9]; [15]
  Plant response rating, Ragweed: 0
[9]; [16]
  Plant response rating, Ragweed: 0
[9]; [17]
  Plant response rating, Ragweed: 0
[9]; Preemergence, scale 0 to 100
  Ragweed plant response rating: 0
[10]; postemergence, 0-100 scale
  Wheat plant response rating: 50
[10]; [12]
  Plant response rating, Wheat: 85
[10]; [13]
  Plant response rating, Wheat: 90
[10]; [14]
  Plant response rating, Wheat: 100
[10]; [15]
  Plant response rating, Wheat: 30
[10]; [16]
  Plant response rating, Wheat: 85
[10]; [17]
  Plant response rating, Wheat: 95
[10]; Preemergence, scale 0 to 100
  Wheat plant response rating: 0
[11]; Flood (flooded paddy test), 62 g ai/ha, scale 0 to 100, 0 no effect, 100 complete control
  Plant response rating, Ducksalad: 0
[11]; Flood (flooded paddy test), 125 g ai/ha, scale 0 to 100, 0 no effect, 100 complete control
  Plant response rating, Ducksalad: 0
[11]; Flood (flooded paddy test), 250 g ai/ha, scale 0 to 100, 0 no effect, 100 complete control
  Plant response rating, Ducksalad: 65
[11]; Flood, 31 g ai/ha, scale 0 to 100
  Plant response rating, Ducksalad: 0

Reference: patent US20100267561A1, “HERBICIDAL PYRIDAZINONE DERIVATIVES” (priority 2007, published 2010)
